# Molecular target: T1, human 5-HT3A receptor (Homo sapiens, UniProt P46098)
# T1 construct: host or cells: Xenopus laevis oocytes injected with in vitro transcribed mRNA
# T1 sequence (P46098 24-478): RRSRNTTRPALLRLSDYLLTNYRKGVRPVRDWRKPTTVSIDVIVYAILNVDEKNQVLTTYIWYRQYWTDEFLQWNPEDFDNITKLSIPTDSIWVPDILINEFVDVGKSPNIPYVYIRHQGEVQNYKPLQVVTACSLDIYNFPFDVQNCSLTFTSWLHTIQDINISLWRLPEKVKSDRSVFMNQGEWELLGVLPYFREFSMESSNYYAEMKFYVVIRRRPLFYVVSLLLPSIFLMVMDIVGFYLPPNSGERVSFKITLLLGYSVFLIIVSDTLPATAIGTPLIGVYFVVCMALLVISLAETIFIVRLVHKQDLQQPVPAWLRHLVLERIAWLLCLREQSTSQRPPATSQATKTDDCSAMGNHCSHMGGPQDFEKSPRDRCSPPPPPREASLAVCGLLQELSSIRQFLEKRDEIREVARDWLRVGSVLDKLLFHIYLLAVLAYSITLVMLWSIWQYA
# Assay: cell-based
# Type: cell-based
# Experimental: Human 5-hydroxytryptamine (serotonin) receptor 3A cDNA (Genebank number: BC004453) was obtained from OriGene (Rockville, MD, USA). Figure 1A represents the chemical structure of two ergot alkaloids, EG and EC, obtained from Sigma-Aldrich (St. Louis, MO, USA). These ergot alkaloids were diluted in bath solution after dissolving in dimethyl sulfoxide (DMSO) for use as stock solutions. The final treatment concentration of DMSO was less than 0.01%. Xenopus laevis frogs were obtained from the Korean Xenopus Resource Center for Research (KXRCR000001, Chuncheon, Gangwondo, Korea), and other agents were purchased from Sigma-Aldrich.
# To isolate oocytes, female Xenopus laevis were put into a container filled with ice and left for about one hour. When the blood vessels contracted and fell into a state similar to hibernation, the abdomen was incised, and the ovaries were removed and cut into small pieces in Ca^2+-free OR2 solution (82.5 mM NaCl, 2.5 mM KCl, 1 mM MgCl2, and 5 mM HEPES, pH 7.4) with 2 mg/mL collagenase. After a 2 h agitation to digest the follicle membranes, isolated oocytes in stages Ⅴ and Ⅵ were selected and washed repeatedly. The selected oocytes were maintained in ND96 incubation solution (96 mM NaCl, 2 mM KCl, 1.8 mM CaCl2, 1 mM MgCl2, 5 mM HEPES, 2.5 mM sodium pyruvate, and 50 µg/mL gentamycin, pH 7.4) at 16–18 °C. The solution containing the oocytes was changed twice a day and stored in a shaking incubator. Under the microscope, the end of a glass capillary was broken and fitted with a 20 µm diameter needle and filled with mineral oil, discharging air bubbles from the tip. When the Xenopus oocytes were ready for injection, 50 ng of mRNA was injected with a nanoliter injector (Drummond Scientific, Vernon Hills, IL, USA). The recording was started after two days of sufficient shaking incubation in ND96 solution. Surgery, microinjections, and the other handling of Xenopus laevis followed the standard protocols.
# The oocytes in which mRNA was expressed during the incubation period allowed for the estimation of channel or receptor properties for observing drug and ligand potential interactions using a two-electrode voltage clamp (OC-725C; Warner Instruments, Hamden, CT, USA) and Digidata (1322A; Molecular Devices, Sunnyvale, CA, USA). The two-electrode voltage clamp had voltage and current electrodes that stably maintained the potential and delivered the transmembrane potential and high current. […] A computer transferred the converted output amplitude of the voltage clamp amplifiers to an input digital converter using pClamp 10 software (Axon Instruments, Union City, CA, USA). The voltage and current electrodes were filled with 3 M KCl (0.3–0.7 MΩ) and analyzed at a −80 mV holding potential. The oocytes were placed in the chamber and exposed to a ND96 solution at a flow rate of 2 mL per minute. In the electrophysiological experiments, the voltage ramp recording was performed at room temperature, and a current from −80 to +60 mV was applied to determine the current and voltage relationships. Inward peak traces of the 5-HT3A receptor and voltage ramp traces were converted to a value through Clampfit 9.0 (Molecular Devices, San Jose, CA, USA).
# In the experiments, all data were represented as the mean ± SEM (standard error of the mean) of the 5-HT-stimulated inward peak in the 5-HT3A receptors. […] All curves plotted through the Hill equation were generated using Origin Pro 7.0 (OriginLab, Northampton, MA, USA). The significance of differences between the control and chanoclavine treatment was determined according to the p-value in the Student’s t-test. p-values of less than 0.05 were considered statistically significant.
structure (smiles),measurement,setting,value
"NCCc1c[nH]c2ccc(O)cc12 [5-HT, 5-hydroxytryptamine, reference compound]",Imax of normalized 5-HT concentration-response current,,99.1 ± 14.2
"C[C@@H](CO)NC(=O)[C@@H]1C=C2c3cccc4[nH]cc(c34)C[C@H]2N(C)C1 [ergonovine, reference compound]",inhibition at 100 µM,"100 µM compound with 100 µM 5-HT, −80 mV, read-out: inhibition of I5-HT",1.1 ± 4.8%
same,maximum inhibition (Imax),"Hill fit, co-application with 100 µM 5-HT, −80 mV",15 ± 5.7%
same,effect of co-application with 5-HT on current,various concentrations with 100 µM 5-HT,did not show any noticeable reduction
same,effect of compound alone (without 5-HT),"−80 mV holding potential, data not shown",no change
